{"source": "patent US8581605B2", "about": "(priority 2006, dated 2013)", "target": "αHL ion channel (Staphylococcus aureus, UniProt P09616)", "sequence (P09616 27-319 limits assumed)": "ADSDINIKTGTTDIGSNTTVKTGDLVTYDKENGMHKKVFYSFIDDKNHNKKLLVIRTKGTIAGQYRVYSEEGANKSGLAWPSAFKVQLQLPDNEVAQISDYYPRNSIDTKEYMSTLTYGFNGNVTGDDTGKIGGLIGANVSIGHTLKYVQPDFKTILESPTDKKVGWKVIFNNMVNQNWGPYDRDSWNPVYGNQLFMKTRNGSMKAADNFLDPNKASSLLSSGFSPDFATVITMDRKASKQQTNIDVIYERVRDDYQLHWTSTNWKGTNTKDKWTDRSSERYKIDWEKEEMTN", "type": "biochemical", "conditions": "pH 7.4", "data": [{"substance": "hepta-6-sulfato-β-cyclodextrin [s7βCD]", "values": [{"measurement": "reduction of conductance through the αHL when s7βCD is bound", "result": "~90", "unit": "%"}]}]}
